Measured values published in US6689790B2, “Substituted triazolopyridine compounds” (Hoffmann-La Roche Inc., priority 2001, dated 2004).
Read-outs that look alike come from different tables or passages of the source.

Key:
[1] = molecular target: T1, human adenosine A2A receptor (Homo sapiens, UniProt P29274); assay: [3H]-SCH-58261 binding assay, human adenosine A2A receptor (CHO cell membranes, SPA); conditions: for Ki: [3H]-SCH-58261 displacement, read-out: hA2a Ki; for Select. A1/A2a: ratio hA1 Ki / hA2a Ki
T1 construct: expressed in transfected cells; host or cells: CHO cells, semliki forest virus expression system; washed membranes
T1 sequence (P29274 whole entry): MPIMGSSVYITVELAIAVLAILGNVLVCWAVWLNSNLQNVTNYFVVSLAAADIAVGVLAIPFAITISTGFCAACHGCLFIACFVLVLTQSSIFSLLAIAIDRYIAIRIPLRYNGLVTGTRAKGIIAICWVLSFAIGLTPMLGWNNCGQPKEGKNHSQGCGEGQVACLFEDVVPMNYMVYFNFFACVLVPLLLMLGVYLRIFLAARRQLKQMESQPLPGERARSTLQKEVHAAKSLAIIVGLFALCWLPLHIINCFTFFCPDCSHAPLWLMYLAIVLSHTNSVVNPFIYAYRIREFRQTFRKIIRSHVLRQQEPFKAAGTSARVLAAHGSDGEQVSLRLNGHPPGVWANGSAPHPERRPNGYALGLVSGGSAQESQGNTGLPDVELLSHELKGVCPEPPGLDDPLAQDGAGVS
Procedure: Human Adenosine A2A Receptor
The human adenosine A2A receptor was recombinantly expressed in chinese hamster ovary (CHO) cells using the semliki forest virus expression system. Cells were harvested, washed twice by centrifugation, homogenized and again washed by centrifugation. The final washed membrane pellet was suspended in a Tris (50 mM) buffer containing 120 mM NaCl, 5 mM KCl, 2 mM CaCl2 and 10 mM MgCl2 (pH 7.4) (buffer A). […] Compounds were tested at 10 concentrations from 10 μM-0.3 nM. All assays were conducted in duplicate and repeated at least two times. Assay plates were incubated for 1 hour at room temperature before centrifugation and then bound ligand determined using a Packard Topcount scintillation counter. IC50 values were calculated using a non-linear curve fitting program and Ki values calculated using the Cheng-Prussoff equation.

hA1 = molecular target: T2, hA1 (Homo sapiens, UniProt P30542); assay: hA1 receptor affinity (Ki); assay type: binding; conditions: list of examples 10-108
T2 sequence (P30542 1-326): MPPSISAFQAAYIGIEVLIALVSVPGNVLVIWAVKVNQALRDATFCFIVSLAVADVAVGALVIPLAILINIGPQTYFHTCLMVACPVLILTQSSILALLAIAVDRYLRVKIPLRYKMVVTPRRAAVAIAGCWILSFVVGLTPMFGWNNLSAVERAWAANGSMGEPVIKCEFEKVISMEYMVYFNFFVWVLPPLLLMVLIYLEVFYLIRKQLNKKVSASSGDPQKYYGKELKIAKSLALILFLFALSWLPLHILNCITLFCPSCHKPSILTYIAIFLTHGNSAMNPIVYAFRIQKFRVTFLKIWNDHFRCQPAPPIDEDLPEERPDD

[2] = Ki by Cheng-Prussoff, table of preferred compounds

| Compound | Ki ([1]; list of examples 10-108) [nM] | Select. A1/A2a [1] | Ki (hA1) [nM] | Ki [1, 2] [nM] |
| --- | --- | --- | --- | --- |
| CC1CCCN(C(=O)c2cc(N)c3nc(-c4ccco4)nn3c2)C1 (stereo not drawn) [Example 46, (8-Amino-2-furan-2-yl-[1,2,4]triazolo[1,5-a]pyridin-6-yl)-(3-methyl-piperidin-1-yl)-methanone] | 131 | 20.4 | 2690 | – |
| CC1CCCCN1C(=O)c1cc(N)c2nc(-c3ccco3)nn2c1 (stereo not drawn) [Example 39, (8-Amino-2-furan-2-yl-[1,2,4]triazolo[1,5-a]pyridin-6-yl)-(2-methyl-piperidin-1-yl)-methanone] | 136 | 16.1 | 2190 | – |
| Cc1ccc(-c2nc3c(N)cc(C(=O)N4CCCC4C)cn3n2)o1 (stereo not drawn) [Example 85, [8-Amino-2-(5-methyl-furan-2-yl)-[1,2,4]triazolo[1,5-a]pyridin-6-yl]-(2-methyl-pyrrolidin-1-yl)-methanone] | – | 18.1 | 1360 | 75.2 |
| Nc1cc(C(=O)N2CCCCC2)cn2nc(-c3ccco3)nc12 [Example 35, (8-Amino-2-furan-2-yl-[1,2,4]triazolo[1,5-a]pyridin-6-yl)-piperidin-1-yl-methanone] | – | – | 3440 | – |
| CC1CCCN1C(=O)c1cc(N)c2nc(-c3ccc(Br)o3)nn2c1 (stereo not drawn) [Example 12, [8-Amino-2-(5-bromo-furan-2-yl)-[1,2,4]triazolo[1,5-a]pyridin-6-yl]-(2-methyl-pyrrolidin-1-yl)-methanone] | – | – | 1120 | – |
| NC(=O)[C@H]1CCCN1C(=O)c1cc(N)c2nc(-c3ccco3)nn2c1 [Example 43, 1-(8-Amino-2-furan-2-yl-[1,2,4]triazolo[1,5-a]pyridine-6-carbonyl)-pyrrolidine-2-R-carboxylic acid amide] | 138 | 16.9 | 2330 | – |
| CC1CCCCN1C(=O)c1cc(N)c2nc(-c3ccc(Br)o3)nn2c1 (stereo not drawn) [Example 15, [8-Amino-2-(5-bromo-furan-2-yl)-[1,2,4]triazolo[1,5-a]pyridin-6-yl]-(2-methyl-piperidin-1-yl)-methanone] | – | – | 1940 | – |
| Cc1ccc(-c2nc3c(N)cc(C(=O)N4CCCC(C)C4)cn3n2)o1 (stereo not drawn) [Example 88, [8-Amino-2-(5-methyl-furan-2-yl)-[1,2,4]triazolo[1,5-a]pyridin-6-yl]-(3-methyl-piperidin-1-yl)-methanone] | – | 24 | 1350 | 56.2 |
| CN(CCC#N)C(=O)c1cc(N)c2nc(-c3ccc(Br)o3)nn2c1 [Example 24, 8-Amino-2-(5-bromo-furan-2-yl)-[1,2,4]triazolo[1,5-a]pyridine-6-carboxylic acid (2-cyano-ethyl)-methyl-amide] | 111 | 7.5 | 830 | – |
| COCC1CCCN1C(=O)c1cc(N)c2nc(-c3ccco3)nn2c1 (stereo in doubt) [Example 41, (8-Amino-2-furan-2-yl-[1,2,4]triazolo[1,5-a]pyridin-6-yl)-(2-R-methoxymethyl-pyrrolidin-1-yl)-methanone] | – | 56.2 | 4360 | 77.6 |
| Cc1ccc(-c2nc3c(N)cc(C(=O)N4CCCC4)cn3n2)o1 [Example 83, [8-Amino-2-(5-methyl-furan-2-yl)-[1,2,4]triazolo[1,5-a]pyridin-6-yl]-pyrrolidin-1-yl-methanone] | – | – | 1640 | – |
| CC1CCCN1C(=O)c1cc(N)c2nc(-c3ccco3)nn2c1 (stereo not drawn) [Example 37, (8-Amino-2-furan-2-yl-[1,2,4]triazolo[1,5-a]pyridin-6-yl)-(2-methyl-pyrrolidin-1-yl)-methanone] | – | 84.2 | 2940 | 34.9 |
| CCN(CC)C(=O)c1cc(N)c2nc(-c3ccc(Br)o3)nn2c1 [Example 10, 8-Amino-2-(5-bromo-furan-2-yl)-[1,2,4]triazolo[1,5-a]pyridine-6-carboxylic acid diethylamide] | – | – | 2260 | – |
| CCN(CCc1ccccn1)C(=O)c1cc(N)c2nc(-c3ccc(Br)o3)nn2c1 [Example 22, 8-Amino-2-(5-bromo-furan-2-yl)-[1,2,4]triazolo[1,5-a]pyridine-6-carboxylic acid ethyl-(2-pyridin-2-yl-ethyl)-amide] | – | – | 1420 | – |
| CCCN(C)C(=O)c1cc(N)c2nc(-c3ccc(Br)o3)nn2c1 [Example 21, 8-Amino-2-(5-bromo-furan-2-yl)-[1,2,4]triazolo[1,5-a]pyridine-6-carboxylic acid methyl-propyl-amide] | – | – | 1150 | – |
| Nc1cc(C(=O)N(Cc2ccccc2)Cc2ccccc2)cn2nc(-c3cccs3)nc12 [Example 64, 8-Amino-2-thiophen-2-yl-[1,2,4]triazolo[1,5-a]pyridine-6-carboxylic acid dibenzylamide] | – | 3.7 | 311 | 83 |
| CN(CCc1ccccc1)C(=O)c1cc(N)c2nc(-c3ccc(Br)o3)nn2c1 [Example 25, 8-Amino-2-(5-bromo-furan-2-yl)-[1,2,4]triazolo[1,5-a]pyridine-6-carboxylic acid methyl-phenethyl-amide] | – | – | 590 | – |
| Nc1cc(C(=O)N(Cc2ccccc2)Cc2ccccc2)cn2nc(-c3ccco3)nc12 [Example 48, 8-Amino-2-furan-2-yl-[1,2,4]triazolo[1,5-a]pyridine-6-carboxylic acid dibenzylamide] | 32.7 | 7.5 | 247 | – |
| COCC1CCCN1C(=O)c1cc(N)c2nc(-c3ccc(Br)o3)nn2c1 (stereo in doubt) [Example 17, [8-Amino-2-(5-bromo-furan-2-yl)-[1,2,4]triazolo[1,5-a]pyridin-6-yl]-((S)-2-methoxymethyl-pyrrolidin-1-yl)-methanone] | – | – | 1230 | – |
| Nc1cc(C(=O)N2CCSCC2)cn2nc(-c3ccc(Br)o3)nc12 [Example 23, [8-Amino-2-(5-bromo-furan-2-yl)-[1,2,4]triazolo[1,5-a]pyridin-6-yl]-thiomorpholin-4-yl-methanone] | – | – | 937 | – |
| Cc1ccc(-c2nc3c(N)cc(C(=O)N4CCCCC4)cn3n2)o1 [Example 84, [8-Amino-2-(5-methyl-furan-2-yl)-[1,2,4]triazolo[1,5-a]pyridin-6-yl]-piperidin-1-yl-methanone] | – | – | 1270 | – |
| Nc1cc(C(=O)N2CCCC2)cn2nc(-c3ccccn3)nc12 [Example 26, (8-Amino-2-pyridin-2-yl-[1,2,4]triazolo[1,5-a]pyridin-6-yl)-pyrrolidin-1-yl-methanone] | – | – | 3570 | – |
| Nc1cc(C(=O)N2CCCC2)cn2nc(-c3ccco3)nc12 [Example 34, (8-Amino-2-furan-2-yl-[1,2,4]triazolo[1,5-a]pyridin-6-yl)-pyrrolidin-1-yl-methanone] | – | – | 4200 | – |
| CC1CCCN(C(=O)c2cc(N)c3nc(-c4ccc(Br)o4)nn3c2)C1 (stereo not drawn) [Example 20, [8-Amino-2-(5-bromo-furan-2-yl)-[1,2,4]triazolo[1,5-a]pyridin-6-yl]-(3-methyl-piperidin-1-yl)-methanone] | – | – | 803 | – |
| CN(C)C(=O)CN(C)C(=O)c1cc(N)c2nc(-c3ccc(Br)o3)nn2c1 [Example 19, 8-Amino-2-(5-bromo-furan-2-yl)-[1,2,4]triazolo[1,5-a]pyridine-6-carboxylic acid dimethylcarbamoyl-methyl-methyl-amide] | – | – | 3000 | – |
